Measurements published in ChEMBL document CHEMBL1201862, “PubChem BioAssay data set” (2004).
Activity calls are given as the source filed them.

Experiments:
[1] = HIV-1 AD8 envelope cell-cell fusion blockers – cherry-pick, dose response (AID 652062); format: functional, cell-based;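 further: luciferase signal from cell-cell fusion driven by HIV-1 clade B AD8 Env; potency is for inhibitors of fusion seen as a drop in luminescence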
[2] = off-target signal loss in HeLa-CEM21 co-culture – HeLa F-luc CTL cells, cherry-picked, counter-screen for HIV-1 Env fusion inhibitor project, dose response (AID 652040); format: functional, cell-based;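 further: potency for signal decrease marking cytotoxic or nonspecific inhibition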
[3] = blockers of HIV-1 ZM109 envelope-driven cell-cell fusion – HeLa effector, CEM target cells, luciferase, cherry-pick, dose response (AID 652058); format: functional, cell-based;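 further: luciferase signal from HIV-1 Env mediated cell-cell fusion of effector and target cells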
[4] = blockers of HIV-1 envelope-mediated cell-cell fusion – cherry-pick, dose response (AID 652057); format: functional, cell-based
cells [5] = format: functional
[6] = A cytotoxicity screen of small molecule inhibitors of the PhoP region in Salmonella typhi identified in the primary screen. [Related pubchem assays: 1850, 1864, 1985 ]; format: functional
[7] = molecular target: Voltage-dependent T-type calcium channel subunit alpha-1H (Homo sapiens, UniProt O95180); format: functional;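 further: channel activity triggered by adding a high calcium stimulation buffer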
Sequence of Voltage-dependent T-type calcium channel subunit alpha-1H (O95180 whole entry): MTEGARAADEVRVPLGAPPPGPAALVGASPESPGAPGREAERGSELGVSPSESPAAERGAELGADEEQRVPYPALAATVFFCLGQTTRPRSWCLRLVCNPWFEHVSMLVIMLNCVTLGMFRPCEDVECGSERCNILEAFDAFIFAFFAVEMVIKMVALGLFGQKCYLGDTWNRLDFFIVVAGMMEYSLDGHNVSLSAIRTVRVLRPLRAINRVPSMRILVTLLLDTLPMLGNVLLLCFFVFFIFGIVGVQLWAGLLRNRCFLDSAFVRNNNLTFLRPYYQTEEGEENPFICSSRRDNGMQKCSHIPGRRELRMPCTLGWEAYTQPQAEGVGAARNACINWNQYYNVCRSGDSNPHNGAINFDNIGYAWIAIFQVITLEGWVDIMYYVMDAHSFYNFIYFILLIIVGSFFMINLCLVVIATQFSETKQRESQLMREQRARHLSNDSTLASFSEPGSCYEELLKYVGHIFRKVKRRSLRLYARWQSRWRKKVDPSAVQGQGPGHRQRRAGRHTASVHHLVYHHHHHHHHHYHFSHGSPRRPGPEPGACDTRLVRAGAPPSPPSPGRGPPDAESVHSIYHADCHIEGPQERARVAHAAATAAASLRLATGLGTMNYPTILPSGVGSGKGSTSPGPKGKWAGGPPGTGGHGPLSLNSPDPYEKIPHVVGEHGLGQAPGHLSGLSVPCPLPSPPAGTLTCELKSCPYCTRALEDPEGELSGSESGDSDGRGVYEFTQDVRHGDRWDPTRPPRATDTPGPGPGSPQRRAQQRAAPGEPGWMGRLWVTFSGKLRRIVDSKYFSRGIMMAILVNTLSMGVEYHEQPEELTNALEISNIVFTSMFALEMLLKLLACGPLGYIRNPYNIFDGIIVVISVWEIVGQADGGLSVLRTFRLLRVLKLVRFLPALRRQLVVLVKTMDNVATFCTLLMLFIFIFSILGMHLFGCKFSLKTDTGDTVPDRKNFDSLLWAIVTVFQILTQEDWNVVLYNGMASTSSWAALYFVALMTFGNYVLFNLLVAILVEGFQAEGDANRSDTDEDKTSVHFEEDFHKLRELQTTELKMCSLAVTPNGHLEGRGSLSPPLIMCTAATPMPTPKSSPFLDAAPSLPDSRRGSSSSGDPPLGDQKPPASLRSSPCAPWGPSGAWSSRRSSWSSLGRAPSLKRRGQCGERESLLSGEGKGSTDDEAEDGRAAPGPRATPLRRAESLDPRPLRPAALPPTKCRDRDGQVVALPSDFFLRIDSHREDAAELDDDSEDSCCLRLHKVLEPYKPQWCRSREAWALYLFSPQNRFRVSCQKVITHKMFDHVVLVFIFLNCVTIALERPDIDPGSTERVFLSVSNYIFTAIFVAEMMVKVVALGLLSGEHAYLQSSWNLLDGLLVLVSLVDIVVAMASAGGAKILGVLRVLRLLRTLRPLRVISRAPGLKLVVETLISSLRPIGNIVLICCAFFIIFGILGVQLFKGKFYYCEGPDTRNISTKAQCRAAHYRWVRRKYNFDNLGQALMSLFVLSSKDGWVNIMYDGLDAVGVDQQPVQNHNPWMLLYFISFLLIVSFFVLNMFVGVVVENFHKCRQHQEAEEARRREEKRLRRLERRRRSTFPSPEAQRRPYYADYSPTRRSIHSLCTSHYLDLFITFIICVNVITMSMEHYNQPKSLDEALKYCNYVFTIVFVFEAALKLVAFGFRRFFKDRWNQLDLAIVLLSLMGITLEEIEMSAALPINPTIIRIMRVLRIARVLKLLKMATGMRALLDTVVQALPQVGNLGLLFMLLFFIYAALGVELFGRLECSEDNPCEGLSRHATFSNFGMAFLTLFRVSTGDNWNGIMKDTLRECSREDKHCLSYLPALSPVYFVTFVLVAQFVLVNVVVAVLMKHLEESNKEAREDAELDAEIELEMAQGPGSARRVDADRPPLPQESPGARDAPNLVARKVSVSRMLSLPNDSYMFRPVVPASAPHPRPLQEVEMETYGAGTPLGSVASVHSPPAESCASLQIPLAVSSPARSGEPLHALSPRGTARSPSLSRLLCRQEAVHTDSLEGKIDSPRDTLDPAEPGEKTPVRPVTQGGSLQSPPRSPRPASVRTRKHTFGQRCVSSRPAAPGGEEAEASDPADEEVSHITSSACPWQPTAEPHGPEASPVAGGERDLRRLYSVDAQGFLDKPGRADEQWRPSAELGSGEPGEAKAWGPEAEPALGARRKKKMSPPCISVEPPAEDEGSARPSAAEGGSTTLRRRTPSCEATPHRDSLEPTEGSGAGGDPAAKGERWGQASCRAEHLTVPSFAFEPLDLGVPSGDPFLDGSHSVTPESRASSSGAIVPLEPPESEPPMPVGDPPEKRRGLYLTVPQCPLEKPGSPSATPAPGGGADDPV

[8] = molecular target: T1, E3 ubiquitin-protein ligase XIAP (Homo sapiens, UniProt P98170); experiment: small molecules displacing peptide from XIAP – biochemical, IAP family, fluorescence polarization (AID 1018); format: functional
T1 sequence (P98170 whole entry): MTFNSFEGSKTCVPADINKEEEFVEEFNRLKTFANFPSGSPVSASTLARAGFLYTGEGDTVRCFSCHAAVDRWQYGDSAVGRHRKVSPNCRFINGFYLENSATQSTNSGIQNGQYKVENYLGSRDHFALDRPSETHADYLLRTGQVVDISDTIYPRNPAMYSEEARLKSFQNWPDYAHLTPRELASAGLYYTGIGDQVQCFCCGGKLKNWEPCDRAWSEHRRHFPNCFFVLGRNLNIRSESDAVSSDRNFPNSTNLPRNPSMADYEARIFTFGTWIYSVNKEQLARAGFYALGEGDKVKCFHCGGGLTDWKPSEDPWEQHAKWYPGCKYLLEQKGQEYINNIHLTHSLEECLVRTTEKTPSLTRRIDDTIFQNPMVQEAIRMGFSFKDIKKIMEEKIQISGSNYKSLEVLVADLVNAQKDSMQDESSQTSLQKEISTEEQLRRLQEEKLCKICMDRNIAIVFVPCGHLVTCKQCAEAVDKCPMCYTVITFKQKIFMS

[9] = molecular target: T1, E3 ubiquitin-protein ligase XIAP; experiment: Counter Screen using XIAP-Bir3 for Chemical Antagonists of Bir1/2 domains of IAP-family anti-apoptotic proteins. [Related pubchem assays (depositor defined):AID1018, AID1449, AID1514, AID1638, AID1749, AID1750, AID488957, AID488963]
[10] = molecular target: T2, Carboxy-terminal domain RNA polymerase II polypeptide A small phosphatase 1 (Homo sapiens, UniProt Q9GZU7); experiment: CTDSP1 inhibitors, concentration-response, biochemical, absorbance readout, ultra-high-throughput screen actives (AID 540297); format: functional
T2 sequence (Q9GZU7 whole entry): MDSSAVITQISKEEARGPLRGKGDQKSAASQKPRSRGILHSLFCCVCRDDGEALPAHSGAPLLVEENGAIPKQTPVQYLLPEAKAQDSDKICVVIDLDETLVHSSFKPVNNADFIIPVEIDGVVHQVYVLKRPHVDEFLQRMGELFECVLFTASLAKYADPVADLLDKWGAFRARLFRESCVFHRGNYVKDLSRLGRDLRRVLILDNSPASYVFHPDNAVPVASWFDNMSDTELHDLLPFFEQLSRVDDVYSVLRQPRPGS

[11] = Trypanosoma cruzi growth suppression in host cells – NIH3T3 host cells, beta-gal luminescence, confirmation (AID 2044); format: functional, cell-based;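 further: intracellular parasites grown in NIH/3T3 mouse fibroblasts as host cells; luminescent beta-galactosidase reporter signal from transgenic T. cruzi replicating inside host cells; inhibitors lower the luminescence signal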
[12] = NIH3T3 cell viability loss – ATP luminescence, mouse fibroblasts, counter-screen, dose response (AID 2010); format: functional, cell-based;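 further: cells exposed to compound for about 90 hours before reading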
[13] = Luminescence Cell-Based Dose Confirmation HTS to Identify Activators of 5'UTR Stem-Loop Driven Alpha-Synuclein mRNA Translation in H4 Neuroglioblastoma Cells. [Related pubchem assays: 1829 (Project Summary), 1814 (Primary HTS)]; format: functional
H4 = experiment: Luminescence Cell-Based Dose Response HTS to Identify Activators of 5'UTR Stem-Loop Driven Prion Protein mRNA Translation in H4 Neuroglioblastoma Cells. [Related pubchem assays: 1829 (Project Summary), 1814 (Primary HTS)]; format: functional; conditions: Homo sapiens
cells [14] = format: functional, cell-based
cells [15] = format: functional, cell-based; remark: listed apart in the source
[16] = Luminescence Cell-Based Dose Confirmation HTS to Identify Inhibitors of Platelet Dense Granule Release. [Related pubchem assays: 1663 (Primary HTS), 1678 (Summary of Project)]; format: functional
[17] = Luminescence Cell-Based Dose Response HTS to Identify Activators of Luciferase Translation or Activity in H4 […] Cells. [Related pubchem assays: 1829 (Project Summary), 1814 (Primary HTS)]; format: functional
[18] = molecular target: Luciferin 4-monooxygenase (Photinus pyralis, UniProt P08659); experiment: inhibition of purified Photinus pyralis luciferase – biochemical, luminescence, dose response (AID 1891)
Cytochrome P450 2C9 [19] = molecular target: T3, Cytochrome P450 2C9 (Homo sapiens, UniProt P11712)
T3 sequence (P11712 whole entry): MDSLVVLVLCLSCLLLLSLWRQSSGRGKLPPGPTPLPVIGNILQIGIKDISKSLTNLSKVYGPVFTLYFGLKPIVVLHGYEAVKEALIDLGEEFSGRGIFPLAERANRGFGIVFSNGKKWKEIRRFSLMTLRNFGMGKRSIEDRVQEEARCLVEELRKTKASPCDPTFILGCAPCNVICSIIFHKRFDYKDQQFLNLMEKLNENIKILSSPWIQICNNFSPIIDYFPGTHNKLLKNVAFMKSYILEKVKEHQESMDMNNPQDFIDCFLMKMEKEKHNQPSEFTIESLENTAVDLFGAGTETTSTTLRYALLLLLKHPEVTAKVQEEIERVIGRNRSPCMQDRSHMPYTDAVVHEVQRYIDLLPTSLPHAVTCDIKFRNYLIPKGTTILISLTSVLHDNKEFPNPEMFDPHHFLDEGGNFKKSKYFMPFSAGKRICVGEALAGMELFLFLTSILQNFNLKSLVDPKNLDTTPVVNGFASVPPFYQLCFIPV

Cytochrome P450 3A4 [20] = molecular target: T4, Cytochrome P450 3A4 (Homo sapiens, UniProt P08684); conditions: Potency
T4 sequence (P08684 whole entry): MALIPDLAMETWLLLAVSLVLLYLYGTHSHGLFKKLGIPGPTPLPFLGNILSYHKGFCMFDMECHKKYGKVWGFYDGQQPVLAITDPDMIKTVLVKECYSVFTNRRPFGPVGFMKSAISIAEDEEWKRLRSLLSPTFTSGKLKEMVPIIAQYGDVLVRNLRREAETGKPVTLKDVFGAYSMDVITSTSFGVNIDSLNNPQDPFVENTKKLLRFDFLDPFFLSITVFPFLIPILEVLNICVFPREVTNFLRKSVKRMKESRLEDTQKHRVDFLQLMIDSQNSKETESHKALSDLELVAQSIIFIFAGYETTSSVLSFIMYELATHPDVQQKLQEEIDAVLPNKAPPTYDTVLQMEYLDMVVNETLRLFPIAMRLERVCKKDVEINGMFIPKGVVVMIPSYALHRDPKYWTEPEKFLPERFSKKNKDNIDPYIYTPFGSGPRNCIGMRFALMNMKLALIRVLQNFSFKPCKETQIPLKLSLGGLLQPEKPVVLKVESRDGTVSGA

Cytochrome P450 2D6 = Cytochrome P450 2D6 (Homo sapiens, UniProt P10635);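 further: CYP2D6 member of a cytochrome P450 panel assay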
Sequence of Cytochrome P450 2D6 (P10635 whole entry): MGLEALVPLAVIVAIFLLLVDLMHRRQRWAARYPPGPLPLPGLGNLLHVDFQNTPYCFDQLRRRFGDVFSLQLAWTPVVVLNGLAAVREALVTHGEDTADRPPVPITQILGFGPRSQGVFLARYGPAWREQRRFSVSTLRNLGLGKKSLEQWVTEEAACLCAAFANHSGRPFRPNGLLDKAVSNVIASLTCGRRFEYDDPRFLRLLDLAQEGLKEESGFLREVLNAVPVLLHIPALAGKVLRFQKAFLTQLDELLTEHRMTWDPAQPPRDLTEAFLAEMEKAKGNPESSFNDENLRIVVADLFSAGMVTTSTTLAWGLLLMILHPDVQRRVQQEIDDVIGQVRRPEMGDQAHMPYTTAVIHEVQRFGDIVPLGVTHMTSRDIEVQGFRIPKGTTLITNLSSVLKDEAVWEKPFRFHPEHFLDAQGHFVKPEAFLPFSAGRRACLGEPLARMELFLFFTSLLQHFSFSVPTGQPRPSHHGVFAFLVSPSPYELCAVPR

Cytochrome P450 3A4 [21] = molecular target: T4, Cytochrome P450 3A4
INS1 = experiment: INS-1E survival protection against cytokine death – cell-based, luminescence, retest, dose response (AID 449756); format: functional; conditions: Rattus norvegicus;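 further: cell death triggered by IL-1 beta plus TNF-alpha plus IFN-gamma mixture; protective hits raise ATP signal compared with cytokine alone wells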
[22] = viability loss in THP-1 monocytes – THP-1 cells, cytotoxicity control for Vif-APOBEC3G degradation inhibitor project, dose response (AID 1117359); format: functional; conditions: THP-1
Cytochrome P450 2C19 = Cytochrome P450 2C19 (Homo sapiens, UniProt P33261); experiment: Cytochrome panel assay with activity outcomes. Panel member name: p450-cyp2c19 Compounds with AC50 equal or less than 10 uM are considered active; format: functional; conditions: read-out: AC50
Sequence of Cytochrome P450 2C19 (P33261 whole entry): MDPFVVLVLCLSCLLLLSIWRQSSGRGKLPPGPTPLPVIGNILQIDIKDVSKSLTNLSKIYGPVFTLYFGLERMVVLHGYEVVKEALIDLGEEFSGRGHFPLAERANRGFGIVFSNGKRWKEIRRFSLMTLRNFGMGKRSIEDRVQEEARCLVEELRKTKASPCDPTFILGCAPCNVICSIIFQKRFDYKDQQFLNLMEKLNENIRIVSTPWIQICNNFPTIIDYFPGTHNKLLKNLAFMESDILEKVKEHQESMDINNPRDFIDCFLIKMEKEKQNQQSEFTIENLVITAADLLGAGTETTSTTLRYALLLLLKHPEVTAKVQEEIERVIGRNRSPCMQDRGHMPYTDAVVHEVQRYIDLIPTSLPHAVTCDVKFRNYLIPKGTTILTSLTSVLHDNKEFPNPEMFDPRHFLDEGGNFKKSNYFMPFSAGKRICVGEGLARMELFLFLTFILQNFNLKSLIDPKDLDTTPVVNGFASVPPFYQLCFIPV

Cytochrome P450 1A2 = molecular target: T5, Cytochrome P450 1A2 (Homo sapiens, UniProt P05177);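 further: PubChem cytochrome P450 panel assay, CYP1A2 panel member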
T5 sequence (P05177 whole entry): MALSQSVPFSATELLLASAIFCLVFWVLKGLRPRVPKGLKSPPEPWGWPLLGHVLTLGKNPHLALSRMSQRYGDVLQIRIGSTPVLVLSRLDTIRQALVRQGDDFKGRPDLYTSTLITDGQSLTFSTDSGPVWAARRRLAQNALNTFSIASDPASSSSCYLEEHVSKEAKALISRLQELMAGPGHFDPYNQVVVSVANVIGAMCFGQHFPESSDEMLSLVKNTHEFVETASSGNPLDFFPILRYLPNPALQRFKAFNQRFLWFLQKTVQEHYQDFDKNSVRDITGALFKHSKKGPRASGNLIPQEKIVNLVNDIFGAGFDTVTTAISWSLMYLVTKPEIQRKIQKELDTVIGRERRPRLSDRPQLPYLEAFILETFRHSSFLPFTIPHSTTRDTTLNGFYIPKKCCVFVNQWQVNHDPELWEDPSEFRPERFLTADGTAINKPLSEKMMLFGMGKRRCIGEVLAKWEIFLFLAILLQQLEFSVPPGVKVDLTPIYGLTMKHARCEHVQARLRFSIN

Cytochrome P450 2C9 [23] = molecular target: T3, Cytochrome P450 2C9; remark: listed apart in the source
[24] = viability of uninfected HEp-2 cells – cell-based, HTS, cytotoxicity control for RSV inhibitor project, dose response (AID 2410); format: functional; conditions: human respiratory syncytial virus
[25] = molecular target: Glyceraldehyde-3-phosphate dehydrogenase (Homo sapiens, UniProt P04406)

OC1=C2C(=Nc3ccccc3NC2c2cccs2)CCC1 (stereo unspecified)
AC50 [1]: 3.83 µM (active)
AC50 [2]: 2.44 µM (active)
AC50 [3]: 1.3 µM (active)
AC50 [4]: 2.27 µM (active)

Cn1ccs/c1=N\C(=O)c1ccccc1F
IC50 (cells [5]): > 50 µM (active)

Oc1ccc(C2NCc3ccccc3-n3cccc32)cc1Cl (stereo unspecified)
EC50 [6]: > 50 µM (active)

Cc1cc(Cl)c(S(=O)(=O)Nc2ccc3c(c2)OCO3)cc1OCC(=O)NC1CCCCC1
EC50 [7]: 2.06 µM (active)

O=C(COc1cccc2ccccc12)NNC(=O)CSCCO
IC50 [8]: > 100 µM (not active)
IC50 [9]: > 100 µM (inactive)

CC1(C(=O)N(c2ccccc2)C(C(=O)NC2CCCC2)c2ccccn2)CC(=O)N=C2C=CC=CN21 (stereo unspecified)
IC50 [8]: > 100 µM (not active)
IC50 [9]: > 100 µM (inactive)

Cc1ccn2c(=O)nc(SCC(=O)NCc3ccccc3)nc2c1
IC50 [10]: 9.61 µM (active)

CCCCCCOc1ccc(CN2CCN(CC)CC2)cc1
EC50 [11]: 0.752 µM (active)
EC50 [12]: > 30 µM (not active)
EC50 [6]: > 50 µM (active)

O=C(C[n+]1cc(-c2ccccc2)n2c1CCC2)c1cccs1
EC50 [6]: > 50 µM (active)

Cc1cc(O)nc(N=N/C(=N/Nc2ccc(O)cc2)c2ccccc2)n1
EC50 [13]: 11.6 µM (active)
EC50 (H4): 16.4 µM (active)
EC50 (cells [14]): 102 µM (active)
EC50 (cells [15]): 8.27 µM (active)
EC50 [16]: 4.42 µM (active)
EC50 [17]: 13.1 µM (active)
EC50 [18]: 0.763 µM (active)

COc1ccc(NC(=O)C2CCN(C(=O)c3cccs3)CC2)c(OC)c1
AC50 (Cytochrome P450 2C9 [19]): inconclusive

C=CCN1CC[C@]23c4c5ccc(O)c4O[C@H]2/C(=N/NC(=O)c2ccccc2)CC[C@@]3(O)[C@H]1C5 [NALOXONE BENZOYLHYDRAZONE]
AC50 (Cytochrome P450 3A4 [20]): 15.8 µM (inconclusive)

Cc1ccc(C)c(Cn2c(CO)nc3ccccc32)c1
EC50 [7]: 2.68 µM (active)

CCCCC#CC1C=CC(Oc2cc(OC)c(OC)c(OC)c2)C(CO)O1 (stereo unspecified)
AC50 (Cytochrome P450 3A4 [20]): 5.01 µM (inconclusive)

Cc1cc(NC(=O)CSc2c(C)[nH]c3ccccc23)no1
EC50 [7]: 5.22 µM (active)

O=C1CCCN1c1ccc(CNS(=O)(=O)c2ccc(F)cc2)cc1
EC50 [6]: > 50 µM (active)

O=S(=O)(NC1CCN(Cc2ccccc2)CC1)c1cccc2cccnc12
AC50 (Cytochrome P450 2C9 [19]): inconclusive
AC50 (Cytochrome P450 2D6): 1.58 µM (inconclusive)

CCSc1nc(C)cc(C)c1S(=O)(=O)c1ccccc1C
EC50 [6]: > 50 µM (active)

Cc1cc(C(=O)OCC(=O)NCCC(C)C)c2ccccc2n1
AC50 (Cytochrome P450 2C9 [19]): inconclusive
AC50 (Cytochrome P450 3A4 [21]): 15.8 µM (inconclusive)

CC(C)c1c(O)ccc2c1CCC1C(C)(C)CCC[C@@]21C (stereo partly specified)
AC50 (Cytochrome P450 3A4 [20]): 25.1 µM (inconclusive)

CC[C@@]12C(=O)N(c3cccc(F)c3)C(=O)N1[C@H](c1ccc(Br)cc1)[C@@H]1C(=O)N(C(C)(C)C)C(=O)[C@@H]12
AC50 [1]: < 0.26 µM (active)
AC50 [2]: < 0.26 µM (active)
AC50 [3]: < 0.26 µM (active)
AC50 [4]: < 0.26 µM (active)

O=C(N/N=C/c1cc([N+](=O)[O-])ccc1O)c1cccc2ccccc12
EC50 [11]: 2.36 µM (active)
EC50 [12]: > 60 µM (not active)
EC50 (cells [14]): 20.3 µM (active)
EC50 (cells [15]): > 350 µM (not active)
AC50 (INS1): 4.2 µM (active)

O=C(CCCCCCCC(=O)NNC(=O)Nc1ccccc1)NNC(=O)Nc1ccccc1
IC50 [10]: 11.9 µM (active)

COc1ccc(C2(O)CCN(Cc3nnnn3Cc3ccc(F)cc3)CC2)cc1
CC50 [22]: > 40 µM (active)

Cc1cc(O)nc(NN=C(CC(C)C)CC(C)C)n1
IC50 [8]: > 100 µM (not active)
IC50 [9]: > 100 µM (inactive)

Cc1cccc(NC(=O)c2onc3c2CCCC3)c1C
AC50 (Cytochrome P450 2C19): 20 µM (inconclusive)
AC50 (Cytochrome P450 2C9 [19]): inconclusive

CCCOc1ccc(N2CC(C(=O)Nc3ccccn3)CC2=O)cc1 (stereo unspecified)
IC50 (cells [5]): 19.8 µM (active)

COc1cccc(C(=O)OCn2nnc3ccccc3c2=O)c1OC
IC50 (cells [5]): 16.2 µM (active)

Cc1ccc2[nH]c(SCc3ccc([N+](=O)[O-])cc3)nc2c1
AC50 (Cytochrome P450 1A2): 1.12 µM (active)
EC50 [7]: 4.41 µM (active)
AC50 (Cytochrome P450 2C19): 0.794 µM (active)
AC50 (Cytochrome P450 2D6): 5.01 µM (active)
AC50 (Cytochrome P450 2C9 [23]): 3.55 µM (active)
CC50 [24]: 13.6 µM (active)

O=C(/C=C/c1ccccc1)OC1CC(O)C2(O)C=CO[C@@H](OC3OC(CO)C(O)C(O)C3O)C12 (stereo partly specified)
AC50 (Cytochrome P450 3A4 [20]): 3.98 µM (inconclusive)

COc1ccc(C(=O)OCn2nnc3ccccc3c2=O)cc1
IC50 (cells [5]): 16.8 µM (active)

Cc1ccc2c(c1)NC(=O)C(CC(=O)O)O2 (stereo unspecified)
IC50 [8]: > 100 µM (not active)
IC50 [9]: > 100 µM (inactive)

CCOc1ccccc1OCCOc1ccc(F)cc1
AC50 (Cytochrome P450 2C9 [19]): inconclusive
AC50 (Cytochrome P450 2D6): 22.4 µM (inconclusive)

Cc1cc(O)c(C(C)(C)C)cc1Sc1cc(C(C)(C)C)c(O)cc1C
AC50 (Cytochrome P450 3A4 [20]): 3.98 µM (inconclusive)

COc1ccc(-c2coc3cc(OC)cc(OC)c3c2=O)cc1 [BIOCHANIN A, DIMETHYL ETHER]
AC50 (Cytochrome P450 3A4 [20]): 20 µM (inconclusive)

COC(=O)c1cc2sccc2n1Cc1nc(-c2cccc(Cl)c2)oc1C
IC50 [8]: > 100 µM (not active)
IC50 [9]: > 100 µM (inactive)

COc1ccc(S(=O)(=O)NCCC(=O)NC(C)c2ccccc2)cc1 (stereo unspecified)
AC50 (Cytochrome P450 2C19): 17.8 µM (inconclusive)
AC50 (Cytochrome P450 2C9 [19]): inconclusive
AC50 (Cytochrome P450 2D6): 14.1 µM (inconclusive)
AC50 (Cytochrome P450 3A4 [21]): 22.4 µM (inconclusive)

O=C(Nc1ccc(Cl)cc1C(F)(F)F)c1ccc(Cl)cc1
AC50 (Cytochrome P450 1A2): 4.47 µM (inconclusive)
AC50 (Cytochrome P450 2C19): 2.24 µM (inconclusive)
AC50 (Cytochrome P450 2C9 [19]): inconclusive

NC(=NOC(=O)N1c2ccccc2Sc2ccccc21)c1ccc(Br)cc1
IC50 [10]: 6.46 µM (active)

S=C=Nc1cccc2ccccc12 [1-NAPHTHYLISOTHIOCYANATE]
AC50 (Cytochrome P450 3A4 [20]): 25.1 µM (inconclusive)

CCCCCc1nc2c(c3c1CCCC3)CCCC2
EC50 [6]: > 50 µM (active)

O=C(c1ccc(N2CCN(C(=O)c3ccccc3Br)CC2)cc1)c1cccc(F)c1
IC50 [25]: > 100 µM (not active)

CC(C)c1cccc(-c2ccc3c(c2)S(=O)(=O)c2cccc(C(=O)NCc4ccco4)c2C3=O)c1
IC50 [10]: 8.02 µM (active)

COc1cccc(C(c2nnnn2CCc2ccccc2)N2CCN(c3ccccc3)CC2)c1OC (stereo unspecified)
EC50 [7]: 0.986 µM (active)
